# Laboratory results reported in US5491155A, “Substituted thiadiazoles, compositions containing them and their use as antimicrobial and marine antifouling agents” (The Dow Chemical Company, priority 1994, dated 1996).
# Read-outs that look alike come from different tables or passages of the source.
# Key:
# [1] = tested on: Bacillus subtilis; experiment: MIC in nutrient agar, Bacillus subtilis; format: cell-based, Bacillus subtilis (ATCC 8473); conditions: Bs, 48 hours, read-out: Minimum Inhibitory Concentration (MIC)
# Method: (§1) The minimum inhibitory concentration (MIC) for the compounds listed in Table I is determined for bacteria, using nutrient agar, and 7 yeast and fungi, using malt yeast agar. A one percent solution of the test compound is prepared in a mixture of acetone and water.
# (§2) Nutrient agar is prepared at pH 6.8, representing a neutral medium, and at pH 8.2, representing an alkaline medium. The nutrient agars are prepared by adding 23 g of nutrient agar to one-liter of deionized water. In addition, the alkaline medium is prepared by adjusting a 0.04M solution of N-(tris-(hydroxymethyl)methyl)glycine buffered deionized water with concentrated sodium hydroxide to a pH of 8.5.
# (§3) The test tubes containing the agar are cooled in a water bath until the temperature of the agar is 48° C. Then, an appropriate amount of the one percent solution of the test compound is added (except in the controls where no compound is added) to the respective test tubes so that the final concentrations are 500, 250, 100, 50, 25, 10, 2.5, 1.0 and zero parts per million of the test compound in the agar, thus having a known concentration of test compound dispersed therein. The contents of the test tubes are then transferred to respective petri plates. After drying for 24 hours, the petri plates containing nutrient agar are inoculated with bacteria and those containing malt yeast agar are inoculated with yeast and fungi.
# (§4) The inoculation with bacteria is accomplished by using the following procedure. Twenty-four hour-cultures of each of the bacteria are prepared by incubating the respective bacteria in tubes containing nutrient broth for 24 hours at 30° C. in a shaker. Dilutions of each of the 24 hour-cultures are made so that nine separate suspensions (one for each of the nine test bacteria) are made, each containing 10^8 colony forming units (CFU) per mL of suspension of a particular bacteria. Aliquots of 0.3 mL of each of the bacterial suspensions are used to fill the individual wells of Steer's Replicator. For each microbial suspension, 0.3 mL was used to fill three wells (i.e., three wells of 0.3 mL each) so that for the nine different bacteria, 27 wells are filled. The Steer's Replicator is then used to inoculate both the neutral and alkaline pH nutrient agar petri plates.
# (§5) The inoculated petri plates are incubated at 30° C. for 48 hours and then read to determine if the test compound which is incorporated into the agar prevented growth of the respective bacteria.
# (§6) Table II lists the bacteria, yeast and fungi used in the MIC test described above along with their respective American Type Culture Collection (ATCC) identification numbers.
# (§7) In Tables III and IV, the MIC values of the compounds described in Table I as compared to the MIC of a standard commercial preservative (with 1-(3-chloroalkyl)-3,5,7-triaza-1-azoniaadamantane chloride as the active agent and referred to in Tables III and IV as "STANDARD I") are set forth for the bacteria organisms and yeast/fungi organisms which are listed in Table II.
# [2] = tested on: Enterobacter aerogenes; experiment: MIC in nutrient agar, Enterobacter aerogenes; format: cell-based, Enterobacter aerogenes (ATCC 13048); conditions: Klebsiella aerogenes, Ea, 30° C., 48 hours, read-out: Minimum Inhibitory Concentration (MIC)
# Method: as §1, §2, §3, §4, §5, §6, §7
# [3] = tested on: Escherichia coli; experiment: MIC in nutrient agar, Escherichia coli; format: cell-based, Escherichia coli (ATCC 11229); conditions: Ec, 48 hours, read-out: Minimum Inhibitory Concentration (MIC)
# Method: as §1, §2, §3, §4, §5, §6, §7
# [4] = tested on: Klebsiella pneumonias; experiment: MIC in nutrient agar, Klebsiella pneumonias; format: cell-based, Klebsiella pneumonias (ATCC 8308); conditions: Kp, 48 hours, read-out: Minimum Inhibitory Concentration (MIC)
# Method: as §1, §2, §3, §4, §5, §6, §7
# [5] = tested on: Pseudomonas aeruginosa (PRD-10); experiment: MIC in nutrient agar, Pseudomonas aeruginosa (PRD-10); format: cell-based, Pseudomonas aeruginosa (ATCC 15442); conditions: PRD, 48 hours, read-out: Minimum Inhibitory Concentration (MIC)
# Method: as §1, §2, §3, §4, §5, §6, §7
# [6] = tested on: Salmonella choleraesuis; experiment: MIC in nutrient agar, Salmonella choleraesuis; format: cell-based, Salmonella choleraesuis (ATCC 10708); conditions: Salmonella enterica, Sc, 48 hours, read-out: Minimum Inhibitory Concentration (MIC)
# Method: as §1, §2, §3, §4, §5, §6, §7
# [7] = tested on: Staphylococcus aureus; experiment: MIC in nutrient agar, Staphylococcus aureus; format: cell-based, Staphylococcus aureus (ATCC 6538); conditions: Sa, 48 hours, read-out: Minimum Inhibitory Concentration (MIC)
# Method: as §1, §2, §3, §4, §5, §6, §7
# [8] = tested on: Aspergillus niger; experiment: MIC in malt yeast agar, Aspergillus niger; format: cell-based, Aspergillus niger (ATCC 16404); conditions: An; malt yeast agar; 30° C.; 72 hours for fungi; read-out: Minimum Inhibitory Concentration (MIC)
# Method: as §1
# (§8) Malt yeast agar is prepared by adding 3 g yeast extract and 45 g malt agar per liter of deionized water. The specific agar is dispensed in 30 mL aliquots into 25×200 mm test tubes, capped and autoclaved for 15 minutes at 115° C.
# as §3
# (§9) The inoculation with the yeast and fungi is accomplished as follows. Cultures of yeast and fungi are incubated for seven days on malt yeast agar at 30° C. These cultures are used to prepare suspensions by the following procedure. A suspension of each organism is prepared by adding 10 mL of sterile saline and 10 microliters of octylphenoxy polyethoxy ethanol to the agar slant of yeast or fungi. The sterile saline/octylphenoxy polyethoxy ethanol solution is then agitated with a sterile swab to suspend the microorganism grown on the slant. Each resulting suspension is diluted into sterile saline (1 part suspension: 9 parts sterile saline). Aliquots of these dilutions are placed in individual wells of Steer's Replicator and petri plates inoculated as previously described. The petri plates are incubated at 30° C. and read after 48 hours for yeast and 72 hours for fungi.
# as §6, §7
# [9] = tested on: Penicillium chrysogenum; experiment: MIC in malt yeast agar, Penicillium chrysogenum; format: cell-based, Penicillium chrysogenum (ATCC 9480); conditions: Pc; malt yeast agar; 30° C.; 72 hours for fungi; read-out: Minimum Inhibitory Concentration (MIC)
# Method: as §1, §8, §3, §9, §6, §7
# [10] = tested on: Saccharomyces cerevisiae; experiment: MIC in malt yeast agar, Saccharomyces cerevisiae; format: cell-based, Saccharomyces cerevisiae (ATCC 4105); conditions: Sc, malt yeast agar, 30° C., 48 hours for yeast, read-out: Minimum Inhibitory Concentration (MIC)
# Method: as §1, §8, §3, §9, §6, §7
# [11] = tested on: Fusarium oxysporum; experiment: MIC in malt yeast agar, Fusarium oxysporum; format: cell-based, Fusarium oxysporum (ATCC 48112); conditions: Fo; malt yeast agar; 30° C.; 72 hours for fungi; read-out: Minimum Inhibitory Concentration (MIC)
# Method: as §1, §8, §3, §9, §6, §7
Compound,"MIC ([1]; pH 6.8, 30° C.)","MIC ([1]; pH 8.2, 30° C.)",MIC ([2]; pH 6.8),MIC ([2]; pH 8.2),"MIC ([3]; pH 6.8, 30° C.)","MIC ([3]; pH 8.2, 30° C.)","MIC ([4]; pH 6.8, 30° C.)","MIC ([4]; pH 8.2, 30° C.)","MIC ([5]; pH 6.8, 30° C.)","MIC ([5]; pH 8.2, 30° C.)","MIC ([6]; pH 6.8, 30° C.)","MIC ([6]; pH 8.2, 30° C.)","MIC ([7]; pH 6.8, 30° C.)","MIC ([7]; pH 8.2, 30° C.)",MIC [8],MIC [9],MIC [10],MIC [11]
"N#CSc1nsnc1SC#N [Example 2, Bis(thiocyanato)-1,2,5-thiadiazole]",25 µg/mL,100 µg/mL,25 µg/mL,100 µg/mL,25 µg/mL,50 µg/mL,25 µg/mL,250 µg/mL,25 µg/mL,250 µg/mL,25 µg/mL,100 µg/mL,25 µg/mL,100 µg/mL,< 1 µg/mL,< 1 µg/mL,5 µg/mL,2.5 µg/mL
"N#CSCSc1nsnc1SCSC#N [Example 4, Bis(thiomethylthiocyanato)-1,2,5-thiadiazole]",< 10 µg/mL,< 10 µg/mL,25 µg/mL,< 10 µg/mL,25 µg/mL,< 10 µg/mL,< 10 µg/mL,< 10 µg/mL,25 µg/mL,25 µg/mL,25 µg/mL,25 µg/mL,< 10 µg/mL,< 10 µg/mL,< 2.5 µg/mL,< 2.5 µg/mL,< 2.5 µg/mL,< 2.5 µg/mL
